Assays:
[1] = Sensory evaluation of off-taste suppressing effect in 0.8 wt % potassium chloride aqueous solution (Experimental Examples 1 and 2)
Method: Each compound shown in the following Tables 1 to 13 was added to a 0.8 wt % potassium chloride aqueous solution at the concentration (addition concentration) shown in the following Tables 1 to 13 to prepare each evaluation sample.
(§1) Based on the following evaluation criteria, a panel of two experts determined by consensus the intensity of off-tastes (bitter taste, metallic taste, harsh taste, astringent taste) derived from potassium chloride in each evaluation sample, by reference to each potassium chloride aqueous solution adjusted to 0.8 wt %, 0.75 wt %, 0.7 wt %, or 0.65 wt %.
−: intensity of the same level as potassium chloride aqueous solution with potassium chloride concentration of not less than 0.8 wt %
+: intensity of the same level as potassium chloride aqueous solution with potassium chloride concentration of not less than 0.75 wt % and less than 0.8 wt %
++: intensity of the same level as potassium chloride aqueous solution with potassium chloride concentration of not less than 0.7 wt % and less than 0.75 wt %
+++: intensity of the same level as potassium chloride aqueous solution with potassium chloride concentration of not less than 0.65 wt % and less than 0.7 wt %
Each compound shown in the following Table 14 was added to a 0.8 wt % potassium chloride aqueous solution at the concentration (addition concentration) shown in the following Table 14 to prepare each evaluation sample.

[2] = Sensory evaluation in Japanese noodle soup base solution with potassium chloride (0.2 g) (Experimental Example 5); conditions: for off-taste suppressing effect: Japanese noodle soup base solution, potassium chloride 0.2 g; for intensity of off-tastes (bitter taste, metallic taste, harsh taste, astringent taste) derived from potassium chloride: base solution of Table 19
Method: Potassium chloride (0.2 g) was added to a commercially available Japanese noodle soup base (manufactured by Yamaki Co., Ltd.) (11.1 g), and dissolved by adding hot water (88.7 g) to prepare a base solution.
Each compound shown in the following Table 19 was added to the base solution prepared above so as to achieve the concentration (addition concentration) shown in the following Table 19 to prepare each evaluation sample.
as §1, with “0.2” for “0.8”, “0.15” for “0.75”, “%” for “%, 0.7 wt %,”, “0.1” for “0.65”

[3] = 0.8 wt % potassium chloride aqueous solution, addition concentration 100 weight ppb (12.5 weight ppm with respect to potassium chloride)
[4] = in words, potassium chloride aqueous solutions, Tables 1 to 14
[5] = potassium chloride aqueous solutions, Tables 1 to 14
[6] = 0.8 wt % potassium chloride aqueous solution, addition concentration 1 weight ppb (0.125 weight ppm with respect to potassium chloride)
[7] = 0.8 wt % potassium chloride aqueous solution, addition concentration 5 weight ppb (0.625 weight ppm with respect to potassium chloride)
[8] = 0.8 wt % potassium chloride aqueous solution, addition concentration 10 weight ppb (1.25 weight ppm with respect to potassium chloride)
[9] = 0.8 wt % potassium chloride aqueous solution, addition concentration 50 weight ppb (6.25 weight ppm with respect to potassium chloride)
[10] = 0.8 wt % potassium chloride aqueous solution, addition concentration 500 weight ppb (62.5 weight ppm with respect to potassium chloride)
[11] = 0.8 wt % potassium chloride aqueous solution, addition concentration 1000 weight ppb (125 weight ppm with respect to potassium chloride)

Row | Compound | off-taste suppressing effect [1, 3] | off-taste suppressing effect [1, 4] | intensity of off-tastes (bitter taste, metallic taste, harsh taste, astringent taste) derived from potassium chloride [1, 5] | off-taste suppressing effect [1, 11] | also measured
1 | CCc1ccco1 [2-ethylfuran, reference compound] | − (intensity of the same level as potassium chloride aqueous solution with potassium chloride concentration of not less than 0.8 wt %) | could not be confirmed | did not show changes |  | 
2 | CCCCCc1ccco1 [2-pentylfuran, reference compound] | − (intensity of the same level as potassium chloride aqueous solution with potassium chloride concentration of not less than 0.8 wt %) | could not be confirmed | did not show changes |  | 
3 | CC(=O)c1cc(C)oc1C [3-acetyl-2,5-dimethylfuran] |  |  | decreased |  | off-taste suppressing effect [1, 6]: + (intensity of the same level as potassium chloride aqueous solution with potassium chloride concentration of not less than 0.75 wt % and less than 0.8 wt %); off-taste suppressing effect [1, 7]: ++ (intensity of the same level as potassium chloride aqueous solution with potassium chloride concentration of not less than 0.7 wt % and less than 0.75 wt %); off-taste suppressing effect [1, 8]: + (intensity of the same level as potassium chloride aqueous solution with potassium chloride concentration of not less than 0.75 wt % and less than 0.8 wt %); off-taste suppressing effect ([2]; addition concentration 5 weight ppb (2.5 weight ppm with respect to potassium chloride)): +++ (intensity of the same level as potassium chloride aqueous solution with potassium chloride concentration of less than 0.1 wt %); intensity of off-tastes (bitter taste, metallic taste, harsh taste, astringent taste) derived from potassium chloride [2]: decreased
4 | CC(=O)OC1=C(C)OC(C)C1=O (stereo not shown) [4-acetoxy-2,5-dimethyl-3(2H)-furanone] | ++ (intensity of the same level as potassium chloride aqueous solution with potassium chloride concentration of not less than 0.7 wt % and less than 0.75 wt %) |  | decreased |  | off-taste suppressing effect [1, 9]: + (intensity of the same level as potassium chloride aqueous solution with potassium chloride concentration of not less than 0.75 wt % and less than 0.8 wt %); off-taste suppressing effect [1, 10]: + (intensity of the same level as potassium chloride aqueous solution with potassium chloride concentration of not less than 0.75 wt % and less than 0.8 wt %); off-taste suppressing effect ([2]; addition concentration 100 weight ppb (50 weight ppm with respect to potassium chloride)): + (intensity of the same level as potassium chloride aqueous solution with potassium chloride concentration of not less than 0.15 wt % and less than 0.2 wt %); intensity of off-tastes (bitter taste, metallic taste, harsh taste, astringent taste) derived from potassium chloride [2]: decreased
5 | CCC1OC(=O)C(O)=C1C (stereo not shown) [5-ethyl-3-hydroxy-4-methyl-2(5H)-furanone, reference compound] | − (intensity of the same level as potassium chloride aqueous solution with potassium chloride concentration of not less than 0.8 wt %) | could be hardly confirmed |  | − (intensity of the same level as potassium chloride aqueous solution with potassium chloride concentration of not less than 0.8 wt %) | off-taste suppressing effect [1, 6]: − (intensity of the same level as potassium chloride aqueous solution with potassium chloride concentration of not less than 0.8 wt %); off-taste suppressing effect [1, 7]: + (intensity of the same level as potassium chloride aqueous solution with potassium chloride concentration of not less than 0.75 wt % and less than 0.8 wt %); off-taste suppressing effect [1, 8]: + (intensity of the same level as potassium chloride aqueous solution with potassium chloride concentration of not less than 0.75 wt % and less than 0.8 wt %); off-taste suppressing effect [1, 9]: − (intensity of the same level as potassium chloride aqueous solution with potassium chloride concentration of not less than 0.8 wt %); off-taste suppressing effect [1, 10]: − (intensity of the same level as potassium chloride aqueous solution with potassium chloride concentration of not less than 0.8 wt %)
6 | CCC1=C(O)C(=O)C(C)O1 (stereo not shown) [5-ethyl-4-hydroxy-2-methyl-3(2H)-furanone, reference compound] | − (intensity of the same level as potassium chloride aqueous solution with potassium chloride concentration of not less than 0.8 wt %) | could be hardly confirmed |  |  | off-taste suppressing effect [1, 8]: − (intensity of the same level as potassium chloride aqueous solution with potassium chloride concentration of not less than 0.8 wt %); off-taste suppressing effect [1, 9]: + (intensity of the same level as potassium chloride aqueous solution with potassium chloride concentration of not less than 0.75 wt % and less than 0.8 wt %)
7 | CC(=O)O [acetic acid, reference compound] |  | could not be confirmed | did not show changes | − (intensity of the same level as potassium chloride aqueous solution with potassium chloride concentration of not less than 0.8 wt %) | 
8 | CCCC(=O)O [butyric acid] | − (intensity of the same level as potassium chloride aqueous solution with potassium chloride concentration of not less than 0.8 wt %) |  | decreased | + (intensity of the same level as potassium chloride aqueous solution with potassium chloride concentration of not less than 0.75 wt % and less than 0.8 wt %) | off-taste suppressing effect [1, 10]: + (intensity of the same level as potassium chloride aqueous solution with potassium chloride concentration of not less than 0.75 wt % and less than 0.8 wt %)
9 | O=CO [formic acid, reference compound] |  | could not be confirmed | did not show changes | − (intensity of the same level as potassium chloride aqueous solution with potassium chloride concentration of not less than 0.8 wt %) | 
10 | CCCCCC(=O)O [hexanoic acid, reference compound] |  | could not be confirmed | did not show changes | − (intensity of the same level as potassium chloride aqueous solution with potassium chloride concentration of not less than 0.8 wt %) | 
11 | CCCCC(=O)O [pentanoic acid, reference compound] |  | could not be confirmed | did not show changes | − (intensity of the same level as potassium chloride aqueous solution with potassium chloride concentration of not less than 0.8 wt %) | 

— patent US20220279826A1, “OFF-FLAVOR SUPPRESSING AGENT” (AJINOMOTO CO., INC., priority 2019, published 2022)
